Experimental data reported in patent publication US9988379B2, “GPR40 receptor agonist, methods of preparing the same, and pharmaceutical compositions containing the same as an active agent” (LG CHEM, LTD., priority 2012, dated 2018).

target: T1, human GPR40 (Homo sapiens, UniProt O14842); assay: Induction of Ca2+ (calcium flux assay) using human GPR40 expression cell line; format: cell-based; conditions: read-out: EC0.5
T1 construct: expressed in transfected cells; host or cells: CHO-K1
How it was run: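 Read-out is intracellular Ca2+ flux on FlexStation after test compounds (DMSO stocks diluted 200-fold in assay buffer) were added to dye-loaded human GPR40/CHO-K1 cells. Cells had been cultured 24 h, then incubated 1 h at 37° C with Calcium 5 dye, HBSS-HEPES pH 7.4; EC0.5 from concentration plot.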

T1 sequence (O14842 whole entry): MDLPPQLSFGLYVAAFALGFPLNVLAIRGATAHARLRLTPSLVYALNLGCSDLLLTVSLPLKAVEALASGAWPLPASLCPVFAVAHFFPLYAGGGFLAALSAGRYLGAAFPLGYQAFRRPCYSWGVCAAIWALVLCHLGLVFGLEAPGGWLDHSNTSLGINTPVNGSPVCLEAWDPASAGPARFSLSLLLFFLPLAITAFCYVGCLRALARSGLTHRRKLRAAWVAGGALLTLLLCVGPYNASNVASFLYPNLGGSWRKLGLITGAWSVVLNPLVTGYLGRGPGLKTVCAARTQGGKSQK

Row | SMILES | EC50 [nM]
1 | CC(CC(=O)O)c1ccc(OCc2ccc3cnn(Cc4ccccc4)c3c2)cc1 (stereo not shown) [Example 117, 3-[4-(1-benzyl-1H-indazol-6-ylmethoxy)-phenyl]-butyric acid] | 50
2 | O=C(O)CC1CCc2cc(OCc3ccc4c(cnn4Cc4ccccc4)c3)ccc21 (stereo not shown) [Example 118, [5-(1-benzyl-1H-indazol-5-ylmethoxy)-indan-1-yl]-acetic acid] | 200
3 | O=C(O)CC1CCCc2cc(OCc3ccc4c(cnn4Cc4ccccc4)c3)ccc21 (stereo not shown) [Example 119, [6-(1-benzyl-1H-indazol-5-ylmethoxy)-1,2,3,4-tetrahydro-naphthalen-1-yl]-acetic acid] | 60
4 | O=C(O)CC1COc2cc(OCc3ccc4ccn(Cc5ccccc5)c4n3)ccc21 (stereo not shown) [Example 121, [6-(1-benzyl-1H-pyrrolo[2,3-b]pyridin-6-ylmethoxy)-2,3-dihydro-benzofuran-3-yl]-acetic acid] | 300
5 | CC#C[C@@H](CC(=O)O)c1ccc(OCc2ccc3c(c2)nnn3Cc2ccccc2)cc1 [Example 124, (S)-3-[4-(1-benzyl-1H-benzotriazol-5-ylmethoxy)-phenyl]-hex-4-ynoic acid] | 50
6 | Cc1cc(COc2ccc3c(c2)OCC3CC(=O)O)cc2cnn(Cc3ccccc3)c12 (stereo not shown) [Example 128, [6-(1-benzyl-7-methyl-1H-indazol-5-ylmethoxy)-2,3-dihydro-benzofuran-3-yl]-acetic acid] | 50 to 500
7 | Cc1cc(COc2ccc3c(c2)OCCC3CC(=O)O)cc2cnn(Cc3ccccc3)c12 (stereo not shown) [Example 129, [7-(1-benzyl-7-methyl-1H-indazol-5-ylmethoxy)-chroman-4-yl]-acetic acid] | 80
8 | Cc1cc(COc2ccc3c(c2)OCCC3CC(=O)O)cc2cnn(CC(C)C)c12 (stereo not shown) [Example 131, [7-(1-isobutyl-7-methyl-1H-indazol-5-ylmethoxy)-chroman-4-yl]-acetic acid] | 50 to 500
9 | CC(C)Cn1ncc2cc(COc3ccc4c(c3)OCCC4CC(=O)O)ccc21 (stereo not shown) [Example 133, [7-(1-isobutyl-1H-indazol-5-ylmethoxy)-chroman-4-yl]-acetic acid] | 400
10 | O=C(O)CC1CCOc2cc(OCc3ccc4c(cnn4CCc4ccccc4)c3)ccc21 (stereo not shown) [Example 135, [7-(1-phenethyl-1H-indazol-5-ylmethoxy)-chroman-4-yl]-acetic acid] | 200
11 | CC(C)CCn1ncc2cc(COc3ccc4c(c3)OCCC4CC(=O)O)ccc21 (stereo not shown) [Example 137, {7-[1-(3-methyl-butyl)-1H-indazol-5-ylmethoxy]-chroman-4-yl}-acetic acid] | 50 to 500
12 | O=C(O)CC1CCOc2cc(OCc3ccc4c(cnn4CC4CCCCC4)c3)ccc21 (stereo not shown) [Example 139, [7-(1-cyclohexyl methyl-1H-indazol-5-ylmethoxy)-chroman-4-yl]-acetic acid] | 300
13 | O=C(O)CC1CCOc2cc(OCc3ccc4c(cnn4Cc4ccccn4)c3)ccc21 (stereo not shown) [Example 142, [7-(1-pyridine-2-ylmethyl-1H-indazol-5-ylmethoxy)-chroman-4-yl]-acetic acid] | ≥ 500
14 | CC#C[C@@H](CC(=O)O)c1ccc(OCc2ccc3c(cnn3Cc3cccnc3)c2)cc1 [Example 147, (S)-3-[4-(1-pyridin-3-ylmethyl-1H-indazol-5-ylmethoxy)-phenyl]-hex-4-ynoic acid] | 1 to 50

More lines, now with the values ahead:

Row | EC50 [nM] | SMILES
15 | 1 to 50 | CC#C[C@@H](CC(=O)O)c1ccc(OCc2ccc3c(cnn3C(C)C)c2)cc1 [Example 116, (S)-3-[4-(1-isopropyl-1H-indazol-5-ylmethoxy)-phenyl]-hex-4-ynoic acid]
16 | 40 | O=C(O)CC1CCOc2cc(OCc3ccc4c(cnn4Cc4ccccc4)c3)ccc21 (stereo not shown) [Example 120, [7-(1-benzyl-1H-indazol-5-ylmethoxy)-chroman-4-yl]-acetic acid]
17 | 1 to 50 | CC#C[C@@H](CC(=O)O)c1ccc(OCc2cc3c(cnn3Cc3ccccc3)cc2F)cc1 [Example 122, (S)-3-[4-(1-benzyl-5-fluoro-1H-indazol-6-ylmethoxy)-phenyl]-hex-4-ynoic acid]
18 | 1 to 50 | CC#C[C@@H](CC(=O)O)c1ccc(OCc2ccc3c(ccn3Cc3ccccc3)c2)cc1 [Example 123, (S)-3-[4-(1-benzyl-1H-indol-5-ylmethoxy)-phenyl]-hex-4-ynoic acid]
19 | 20 | CC#C[C@@H](CC(=O)O)c1ccc(OCc2ccc3c(c2)ncn3Cc2ccccc2)cc1 [Example 125, (S)-3-[4-(1-benzyl-1H-benzoimidazol-5-ylmethoxy)-phenyl]-hex-4-ynoic acid]
20 | 1 to 50 | CC#C[C@@H](CC(=O)O)c1ccc(OCc2cc(C)c3c(cnn3Cc3ccccc3)c2)cc1 [Example 126, (S)-3-[4-(1-benzyl-7-methyl-1H-indazol-5-ylmethoxy)-phenyl]-hex-4-ynoic acid]
21 | 1 to 50 | CC#C[C@@H](CC(=O)O)c1ccc(OCc2cc(C)c3nn(Cc4ccccc4)cc3c2)cc1 [Example 127, (S)-3-[4-(2-benzyl-7-methyl-2H-indazol-5-ylmethoxy)-phenyl]-hex-4-ynoic acid]
22 | 1 to 50 | CC#C[C@@H](CC(=O)O)c1ccc(OCc2cc(C)c3c(cnn3CC(C)C)c2)cc1 [Example 130, (S)-3-[4-(1-isobutyl-7-methyl-1H-indazol-5-ylmethoxy)-phenyl]-hex-4-ynoic acid]
23 | 1 to 50 | CC#C[C@@H](CC(=O)O)c1ccc(OCc2ccc3c(cnn3CC(C)C)c2)cc1 [Example 132, (S)-3-[4-(1-isobutyl-1H-indazol-5-ylmethoxy)-phenyl]-hex-4-ynoic acid]
24 | 4 | CC#C[C@@H](CC(=O)O)c1ccc(OCc2ccc3c(cnn3CCc3ccccc3)c2)cc1 [Example 134, (S)-3-[4-(1-phenethyl-1H-indazol-5-ylmethoxy)-phenyl]-hex-4-ynoic acid]
25 | 1 to 50 | CC#C[C@@H](CC(=O)O)c1ccc(OCc2ccc3c(cnn3CCC(C)C)c2)cc1 [Example 136, (S)-3-{4-[1-(3-methyl-butyl)-1H-indazol-5-ylmethoxy]-phenyl}-hex-4-ynoic acid]
26 | 10 | CC#C[C@@H](CC(=O)O)c1ccc(OCc2ccc3c(cnn3CC3CCCCC3)c2)cc1 [Example 138, (S)-3-[4-(1-cyclohexylmethyl-1H-indazol-5-ylmethoxy)-phenyl]-hex-4-ynoic acid]
27 | 4 | CC#C[C@@H](CC(=O)O)c1ccc(OCc2cc(C)c3nn(CC(C)C)cc3c2)cc1 [Example 140, (S)-3-[4-(2-isobutyl-7-methyl-2H-indazol-5-ylmethoxy)-phenyl]-hex-4-ynoic acid]
28 | 1 to 50 | CC#C[C@@H](CC(=O)O)c1ccc(OCc2ccc3c(cnn3Cc3ccccn3)c2)cc1 [Example 141, (S)-3-[4-(1-pyridine-2-ylmethyl-1H-indazol-5-ylmethoxy)-phenyl]-hex-4-ynoic acid]
29 | 1 to 50 | CC#C[C@@H](CC(=O)O)c1ccc(OCc2cnc3c(ccn3Cc3ccccc3)c2)cc1 [Example 143, (S)-3-[4-(1-benzyl-1H-pyrrolo[2,3-b]pyridin-5-ylmethoxy)-phenyl]-hex-4-ynoic acid]
30 | 1 to 50 | CC#C[C@@H](CC(=O)O)c1ccc(OCc2cnc3c(ccn3CC(C)C)c2)cc1 [Example 144, (S)-3-[4-(1-isobutyl-1H-pyrrolo[2,3-b]pyridin-5-ylmethoxy)-phenyl]-hex-4-ynoic acid]
31 | 40 | Cc1c(COc2ccc3c(c2)OCCC3CC(=O)O)ccc2ccn(Cc3ccccc3)c12 (stereo not shown) [Example 145, [7-(1-benzyl-7-methyl-1H-indol-6-ylmethoxy)-chroman-4-yl]-acetic acid]
